Assay results as given in ChEMBL document CHEMBL2396588, “Synthesis, biological evaluation and molecular modeling of substituted 2-aminobenzimidazoles as novel inhibitors of acetylcholinesterase and butyrylcholinesterase” (Bioorg Med Chem, 2013).

Experiments:
Acetylcholinesterase = Acetylcholinesterase (Homo sapiens, UniProt P22303); experiment: Inhibition of human AchE using acetylthiocholine iodide as substrate incubated for 20 mins prior to substrate addition measured for 1 hr by Ellman's method
PC-12 = experiment: Cytotoxicity against rat PC12 cells assessed as cell viability at 100 uM after 48 hrs by MTT assay; format: cell-based; details: pc-12, 48 h
HepG2 = experiment: (§1) Cytotoxicity against human HepG2 cells assessed as cell viability at 100 uM after 48 hrs by MTT assay; format: cell-based; details: hepg2, 48 h, 100 µM
Cholinesterase = Cholinesterase (Homo sapiens, UniProt P06276); experiment: Inhibition of human BuChE using butyrylthiocholine iodide as substrate incubated for 20 mins prior to substrate addition measured for 1 hr by Ellman's method
Homo sapiens = species on record: Homo sapiens; experiment: Selectivity ratio of IC50 for human AChE to IC50 for human BuChE
[1] = as §1; format: cell-based; details: HepG2 cells, read-out: Activity

Sequence of Acetylcholinesterase (P22303 whole entry): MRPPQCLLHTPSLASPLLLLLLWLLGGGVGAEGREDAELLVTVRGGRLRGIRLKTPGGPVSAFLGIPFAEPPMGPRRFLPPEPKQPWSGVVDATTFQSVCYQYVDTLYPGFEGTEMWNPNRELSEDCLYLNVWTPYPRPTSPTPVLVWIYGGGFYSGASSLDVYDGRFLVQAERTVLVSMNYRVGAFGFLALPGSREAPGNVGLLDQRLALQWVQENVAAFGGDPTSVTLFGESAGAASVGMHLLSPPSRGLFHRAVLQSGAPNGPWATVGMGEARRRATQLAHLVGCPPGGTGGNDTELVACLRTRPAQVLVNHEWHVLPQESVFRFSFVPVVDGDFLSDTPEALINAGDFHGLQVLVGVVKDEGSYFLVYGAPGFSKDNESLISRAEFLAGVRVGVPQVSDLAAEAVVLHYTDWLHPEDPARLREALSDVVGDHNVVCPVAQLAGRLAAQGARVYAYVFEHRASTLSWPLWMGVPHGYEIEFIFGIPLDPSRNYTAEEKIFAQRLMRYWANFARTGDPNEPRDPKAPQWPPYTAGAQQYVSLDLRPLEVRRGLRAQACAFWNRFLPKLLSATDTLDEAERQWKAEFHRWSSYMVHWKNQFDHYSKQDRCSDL
Sequence of Cholinesterase (P06276 whole entry): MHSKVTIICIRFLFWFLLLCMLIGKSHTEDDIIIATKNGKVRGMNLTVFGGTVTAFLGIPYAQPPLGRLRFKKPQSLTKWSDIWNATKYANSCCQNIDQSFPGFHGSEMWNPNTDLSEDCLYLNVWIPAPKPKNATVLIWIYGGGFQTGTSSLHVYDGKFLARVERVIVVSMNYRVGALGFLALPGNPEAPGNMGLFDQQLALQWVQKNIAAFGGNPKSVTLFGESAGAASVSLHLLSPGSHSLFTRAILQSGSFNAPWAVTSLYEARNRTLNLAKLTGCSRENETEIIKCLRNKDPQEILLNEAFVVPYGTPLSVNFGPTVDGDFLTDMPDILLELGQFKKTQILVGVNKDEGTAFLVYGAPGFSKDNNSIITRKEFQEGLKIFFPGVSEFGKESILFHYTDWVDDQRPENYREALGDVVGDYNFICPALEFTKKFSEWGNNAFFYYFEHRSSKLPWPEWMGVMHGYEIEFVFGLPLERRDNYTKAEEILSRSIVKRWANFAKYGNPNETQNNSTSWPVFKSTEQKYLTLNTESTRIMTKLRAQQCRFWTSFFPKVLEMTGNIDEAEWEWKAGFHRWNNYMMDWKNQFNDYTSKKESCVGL

SMILES	IC50 (Acetylcholinesterase) [µM]	Activity (PC-12)	Activity (HepG2)	IC50 (Cholinesterase) [µM]	Ratio IC50 (Homo sapiens)	viability at 48 h, 100 µM [1] [%]
CN(C)CCCN(c1nc2ccccc2[nH]1)c1nc2ccccc2[nH]1	59.7	Non-toxic	Non-toxic	2.26	26.4	–
CCN(CC)CCCNc1nc2ccccc2[nH]1	> 100	Non-toxic	Non-toxic	> 100	–	–
c1ccc2c(c1)CCCN2c1nc2ccccc2[nH]1	> 100	Non-toxic	Non-toxic	> 100	–	–
c1ccc(CCCNc2nc3ccccc3[nH]2)cc1	> 100	Non-toxic	Non-toxic	> 100	–	–
CCCCNc1nc2ccccc2n1C	> 100	Non-toxic	Non-toxic	> 100	–	–
CCCCN(C)c1nc2ccccc2[nH]1	> 100	Non-toxic	Non-toxic	> 100	–	–
CC1CCCCN1c1nc2ccccc2[nH]1 (configuration not stated)	88.9	Non-toxic	Non-toxic	2.03	43.8	–
c1ccc2[nH]c(NC34CC5CC(CC(C5)C3)C4)nc2c1	> 100	Non-toxic	Non-toxic	> 100	–	–
CCCCN(C)c1nc2ccccc2n1C	> 100	Non-toxic	Non-toxic	> 100	–	–
c1ccc(Nc2nc3ccccc3[nH]2)nc1	> 100	Non-toxic	Non-toxic	> 100	–	–
CC(C)(C)OC(=O)NCCNc1nc2ccccc2[nH]1	> 100	Non-toxic	Non-toxic	71.9	–	–
COCCNc1nc2ccccc2[nH]1	> 100	Non-toxic	Non-toxic	> 100	–	–
NCCNc1nc2ccccc2[nH]1	> 100	Non-toxic	Non-toxic	> 100	–	–
CCCCNc1nc2ccccc2[nH]1	> 100	–	–	61	–	85.2
c1ccc2[nH]c(N3CCCCC3)nc2c1	59.2	Non-toxic	Non-toxic	1.57	37.7	–
